Patent US7893299B2, “Interleukin-1 and tumor necrosis factor-αmodulators; syntheses of such modulators and methods of using such modulators” (Nereus Pharmaceuticals, Inc., priority 2005, dated 2011)
Where two headings read alike, the source gives them in different places.

How the values were obtained:
[1] = 48 hr cytotoxicity, B16-F10 melanoma; assay type: cell-based, murine; settings: mouse, B16-F10 melanoma cells, 10% FBS, individual values
Experimental: (§1) B16-F10 (ATCC; CRL-6475), DU 145 (ATCC; HTB-81), HEK293 (ATCC; CRL-1573), HT-29 (ATCC; HTB-38), LoVo (ATCC; CCL-229), MDA-MB-231 (ATCC; HTB-26), MIA PaCa-2 (ATCC; CRL-1420), NCI-H292 (ATCC; CRL-1848), OVCAR-3 (ATCC, HTB-161), PANC-1 (ATCC; CRL-1469), PC-3 (ATCC; CRL-1435), RPMI 8226 (ATCC; CCL-155) and U266 (ATCC; TIB-196) are maintained in appropriate culture media. The cells are cultured in an incubator at 37° C. in 5% CO2 and 95% humidified air.
(§2) For cell growth inhibition assays, B16-F10, DU 145, HEK293, HT-29, LoVo, MDA-MB-231, MIA PaCa-2, NCI-H292, OVCAR-3, PANC-1, PC-3, RPMI 8226 and U266 cells are seeded at 1.25×10^3, 5×10^3, 1.5×10^4, 5×10^3, 5×10^3, 1×10^4, 2×10^3, 4×10^3, 1×10^4, 7.5×10^3, 5×10^3, 2×10^4, 2.5×10^4 cells/well respectively in 90 μl complete media into Corning 3904 black-walled, clear-bottom tissue culture plates. 20 mM stock solutions of compounds of Formula II, IIA, and IIB are prepared in 100% DMSO, aliquoted and stored at −80° C. Compounds of Formula II, IIA, and IIB are serially diluted and added in triplicate to the test wells resulting in final concentrations ranging from of 20 μM to 0.2 pM. The plates are returned to the incubator for 48 hours. The final concentration of DMSO is 0.25% in all samples.
(§3) Following 48 hours of drug exposure, 10 μl of 0.2 mg/ml resazurin (obtained from Sigma-Aldrich Chemical Co.) in Mg^2+, Ca^2+ free phosphate buffered saline is added to each well and the plates are returned to the incubator for 3-6 hours. Since living cells metabolize Resazurin, the fluorescence of the reduction product of Resazurin is measured using a Fusion microplate fluorometer (Packard Bioscience) with λex=535 nm and λem=590 nm filters. Resazurin dye in medium without cells was used to determine the background, which is subtracted from the data for all experimental wells.

B16-F10 melanoma cells = experiment: 48 hr cytotoxicity, B16-F10 melanoma; assay type: cell-based, murine; settings: 10% FBS, individual values
Experimental: as §1, §2, §3

[2] = tested on: NF-κB DNA binding activity; experiment: NF-κB DNA binding activity, EMSA, PC-3; assay type: cell-based; settings: TNF-α
[3] = tested on: NF-κB DNA binding activity; experiment: NF-κB DNA binding activity, EMSA, RPMI 8226; assay type: cell-based; settings: LPS
MM cells = experiment: MM cell death after 48 hours on co-administration with other drugs; assay type: cell-based
Experimental: In Vitro assays measuring the percentage of MM cell death after 48 hours were carried out with bortezomib and dexamethasone, each in concert with NPI-1387. […] (See FIGS. 70 and 71).

U266 (MM) = experiment: 48 hr cytotoxicity, U266; assay type: cell-based, human
Experimental: as §1
as §2, with “The plates are returned to the incubator for 48 hours. The final concentration of DMSO is 0.25% in all samples.” left out
as §3, with “Resazurin dye in medium without cells was used to determine the background, which is subtracted from the data for all experimental wells.” left out
The cytotoxicity assays were performed by seeding individual cell lines at appropriate density in the 96 well flat-bottomed plates and allowed to attach for 24 hours at 37° C., 5% CO2 and 95% humidified air (RPMI 8226 and U266 cells were plated in 96 well plates on the day of compound addition). […] Cell viability was assessed 48 hours later by measuring the fluorescence of the reduction product of Resazurin by a Fusion microplate fluorometer (PerkinElmer) with λex=535 nm and λem=590 nm filters. […]

RPMI 8226 (MM) = experiment: 48 hr cytotoxicity, RPMI 8226; assay type: cell-based, human
Experimental: Human colon adenocarcinoma HT-29 (ATCC# HTB-38), prostate adenocarcinoma PC-3 (ATCC# CRL-1435), breast adenocarcinoma MDA-MB231 (ATCC# HTB-26), Multiple Myeloma RPMI 8226 (ATCC# CCL-155) and U266 (ATCC # TIB-196) cell lines and human normal fibroblast CCD-27sk (ATCC# CRL-1475) were all purchased from ATCC (Manassas, Va.). The cells were maintained in their respective ATCC recommended culture media at 37° C., 5% CO2 and 95% humidified air.
The cytotoxicity assays were performed by seeding individual cell lines at appropriate density in the 96 well flat-bottomed plates and allowed to attach for 24 hours at 37° C., 5% CO2 and 95% humidified air (RPMI 8226 and U266 cells were plated in 96 well plates on the day of compound addition). Serially diluted NPI-1387 was added in triplicate to cells at concentrations ranging from 160 nM to 20 μM. Final concentration of 0.25% (v/v) DMSO was used as the vehicle control. Cell viability was assessed 48 hours later by measuring the fluorescence of the reduction product of Resazurin by a Fusion microplate fluorometer (PerkinElmer) with λex=535 nm and λem=590 nm filters. The IC50 values (the drug concentration at which 50% of the maximal observed cytotoxicity is established) were calculated in XLFit 3.0 or XLFit 4.0 (ID Business Solutions Ltd) using a sigmoidal dose response model.

HS766T cells = experiment: apoptosis by PI FACS analysis, HS766T; assay type: cell-based, human; settings: combination treatment with Salinosporamide A, increased from 4%
Description: Novel diterpene inhibitors of NFκB derived from acanthoic acid (NPI-1342 (Formula IIB-a1) and NPI-1387; compound 24 under scheme 4 above) show measurable effects in human pancreatic cancer cell lines in vitro. Seven of the nine cell lines were moderately sensitive to apoptosis induced by death receptor ligand Tumor Necrosis Factor (TNF) related apoptosis-inducing ligand (TRAIL). […] Specific silencing of NFkB/p65 expression mimicked these effects. Furthermore, combination treatment of Salinosporamide A and either NPI-1342 or NPI-1387 led to induction of apoptosis as measured by PI FACS analysis. Specifically, levels of DNA fragmentation increased from 4% to 50% in HS766T cells and from 4% to 52% in Panc1 cells. The inhibitory effects of NPI-1342, NPI-1387 on NFκB were evaluated by Electromobility Shift Assays and confirmed by confocal microscopy.

[4] = tested on: peripheral blood mononuclear cells; experiment: viability of peripheral blood mononuclear cells from normal healthy donors; assay type: cell-based
Description: (§4) Besides nuclear condensation, NF-KB inhibitor triggered proteolytic cleavage of poly (ADP ribose) polymerase (PARP), a hallmark of apoptosis.

[5] = tested on: cells obtained from Bortezomib-refractory MM patient; experiment: viability of purified patient MM cells; assay type: cell-based; settings: in vitro
Description: as §4

[6] = tested on: MM cells with IL-6 or IGF-1; experiment: protective effects of MM bone marrow microenvironment; assay type: cell-based

## C=CC(=O)C1(C)CCCC2(C)C3=CCC(C)(C=C)C[C@@H]3CC[C@H]12 (stereo in doubt) [NPI-1387, 1-[(1S,4aS,7R)-1,4a,7-Trimethyl-7-vinyl-1,2,3,4,4a,6,7,8,8a,9,10,10a-dodecahydro-1-phenanthrenyl]-2-propen-1-one]
[1]
  cytotoxicity at 48 h: 94%
B16-F10 melanoma cells
  % cytotox: 92%
  IC50: 7.5 µM
B16-F10 melanoma cells; Mus musculus, B16-F10, 48 h
  IC50: 6.2 µM
[2]
  NF-κB DNA binding activity: inhibits the DNA binding activity of NF-κB in a dose-dependent manner
[3]
  NF-κB DNA binding activity: inhibits the DNA binding activity of NF-κB in a dose-dependent manner
MM cells
  percentage of MM cell death, co-administration with bortezomib: additive effects in increasing the percentage of MM cell death
  percentage of MM cell death, co-administration with dexamethasone: additive effects in increasing the percentage of MM cell death
U266 (MM)
  IC50: 7 ± 1.9 µM
U266 (MM); Homo sapiens, U-266, 48 h
  IC50: 8.7 ± 6.4 µM
RPMI 8226 (MM)
  IC50: 5.5 ± 0.8 µM
RPMI 8226 (MM); Homo sapiens, RPMI-8226, 48 h
  IC50: 5.1 ± 1 µM
HS766T cells
  levels of DNA fragmentation: 50%
[4]
  toxicity against / change in viable peripheral blood mononuclear cells: relatively minimal
[4]; listed as NF-KB inhibitor
  toxicity against / change in viable peripheral blood mononuclear cells: no significant toxicity
[5]
  viability of cells from Bortezomib-refractory MM patient: decreases the viability
[6]
  protective effects of IL-6 or IGF-1: does overcome the protective effects of IL-6 or IGF-1
